Our source for the inhibition and Stability values is ChEMBL document CHEMBL4184161, “Novel all-hydrocarbon stapled p110α[E545K] peptides as blockers of the oncogenic p110α[E545K]-IRS1 interaction” (Bioorg Med Chem Lett, 2017).

The source made the active and inactive calls. The rule behind the calls is not given here. Numbered stars: 1 amine (or outer) side, 2 acyl side, 3 side chain; on linkers, the order of the positions; unused ones are H or OH. Bridge positions count the residues as written; N and C are the ends. Square brackets hold non-standard residues; d marks the D form. Peptide text beside a SMILES is read from it. X1 = C[C@](CCCCCC=[*:3])(N[*:1])C(=O)[*:2]; X2 = C[C@@](CCCCC=[*:3])(N[*:1])C(=O)[*:2]; R8 = C=CCCCCCC[C@@](C)(N)C(=O)O; S5 = C=CCCC[C@](C)(N)C(=O)O

In the first data set the target is RAC-alpha serine/threonine-protein kinase (Homo sapiens) (UniProt P31749). Briefly: Inhibition of p110alpha[E545K]-IRS1 interaction-initiated Akt phosphorylation at Ser473 residue in DLD1 human colon cancer cells at 50 uM by Western blot analysis.
RAC-alpha serine/threonine-protein kinase (Homo sapiens), sequence (P31749 whole entry): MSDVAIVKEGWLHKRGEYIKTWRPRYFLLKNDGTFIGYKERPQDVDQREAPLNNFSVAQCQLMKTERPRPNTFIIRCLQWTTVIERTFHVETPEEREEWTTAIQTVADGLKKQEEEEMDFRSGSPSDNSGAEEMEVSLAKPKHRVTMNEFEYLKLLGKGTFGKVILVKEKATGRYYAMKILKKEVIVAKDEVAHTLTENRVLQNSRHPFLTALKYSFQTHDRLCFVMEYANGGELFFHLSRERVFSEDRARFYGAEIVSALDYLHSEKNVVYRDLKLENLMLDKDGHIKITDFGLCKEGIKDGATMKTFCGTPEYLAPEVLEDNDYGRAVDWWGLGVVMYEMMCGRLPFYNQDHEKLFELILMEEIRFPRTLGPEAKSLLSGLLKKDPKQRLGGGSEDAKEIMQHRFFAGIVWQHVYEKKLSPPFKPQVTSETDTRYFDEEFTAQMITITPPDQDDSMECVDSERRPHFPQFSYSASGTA
Regarding `CC[C@H](C)[C@H](NC(=O)[C@H](CCC(=O)O)NC(C)=O)C(=O)N[C@H](C(=O)N[C@@H](CCCCN)C(=O)N[C@]1(C)CCCCCCC=CCCC[C@@](C)(C(=O)N[C@@H](Cc2cnc[nH]2)C(=O)N[C@@H](CCCNC(=N)N)C(N)=O)NC(=O)[C@H](Cc2c[nH]c3ccccc23)NC(=O)[C@H](CC(C)C)NC(=O)[C@H](Cc2ccccc2)NC(=O)[C@H](CC(=O)O)NC(=O)[C@H](CCCCN)NC(=O)[C@H](CCC(=O)O)NC1=O)[C@@H](C)O` (stereo in doubt; form 2) [listing 1 of 2 here], the inhibition result was “Active”.
Consider `CC[C@H](C)[C@H](NC(=O)[C@H](CCC(=O)O)NC(C)=O)C(=O)N[C@H](C(=O)N[C@@H](CCCCN)C(=O)N[C@]1(C)CCCCCCC=CCCC[C@@](C)(C(=O)N[C@@H](Cc2cnc[nH]2)C(=O)N[C@@H](CCCNC(=N)N)C(N)=O)NC(=O)[C@H](Cc2c[nH]c3ccccc23)NC(=O)[C@H](CC(C)C)NC(=O)[C@H](Cc2ccccc2)NC(=O)[C@H](CC(=O)O)NC(=O)[C@H](CCCCN)NC(=O)[C@H](CCC(=O)O)NC1=O)[C@@H](C)O` (stereo in doubt; form 1), for which the inhibition result is “Active”.
Consider `CC[C@H](C)[C@H](NC(=O)[C@H](CCC(=O)O)NC(=O)[C@H](CO)NC(C)=O)C(=O)N[C@H](C(=O)N[C@@H](CCCCN)C(=O)N[C@@H](CCC(N)=O)C(=O)N[C@@H](CCC(=O)O)C(=O)N[C@@H](CCCCN)C(=O)N[C@@]1(C)CCC/C=C/CCC[C@@](C)(C(=O)N[C@@H](Cc2cnc[nH]2)C(=O)N[C@@H](CCCNC(=N)N)C(=O)N[C@@H](Cc2cnc[nH]2)C(=O)N[C@@H](Cc2ccc(O)cc2)C(=O)N[C@@H](CS)C(N)=O)NC(=O)[C@H](Cc2c[nH]c3ccccc23)NC(=O)[C@H](CC(C)C)NC(=O)[C@H](Cc2ccccc2)NC1=O)[C@@H](C)O` (Ac-SEITKQEK[S5]FLW[S5]HRHYC-NH2; staple (E) 9-13), for which the inhibition result was “Active”.

Test system in the next data set: not listed separately
Put plainly: Proteolytic stability of the compound assessed as Streptomyces griseus pronase-mediated compound hydrolysis by RP-HPLC method. The format is ADME.
As to `CC[C@H](C)[C@H](NC(=O)[C@H](CCC(=O)O)NC(=O)[C@H](CO)NC(C)=O)C(=O)N[C@H](C(=O)N[C@@H](CCCCN)C(=O)N[C@]1(C)CCCCCCC=CCCC[C@@](C)(C(=O)N[C@@H](Cc2cnc[nH]2)C(=O)N[C@@H](CCCNC(=N)N)C(=O)N[C@@H](Cc2cnc[nH]2)C(=O)N[C@@H](Cc2ccc(O)cc2)C(=O)N[C@@H](CS)C(N)=O)NC(=O)[C@H](Cc2c[nH]c3ccccc23)NC(=O)[C@H](CC(C)C)NC(=O)[C@H](Cc2ccccc2)NC(=O)[C@H](CC(=O)O)NC(=O)[C@H](CCCCN)NC(=O)[C@H](CCC(=O)O)NC1=O)[C@@H](C)O` (Ac-SEITK[R8]EKDFLW[S5]HRHYC-NH2; staple 6-13), the Stability entry is on record as “Stable”.
Regarding `CC[C@H](C)[C@H](NC(=O)[C@H](CCC(=O)O)NC(C)=O)C(=O)N[C@H](C(=O)N[C@@H](CCCCN)C(=O)N[C@]1(C)CCCCCCC=CCCC[C@@](C)(C(=O)N[C@@H](Cc2cnc[nH]2)C(=O)N[C@@H](CCCNC(=N)N)C(N)=O)NC(=O)[C@H](Cc2c[nH]c3ccccc23)NC(=O)[C@H](CC(C)C)NC(=O)[C@H](Cc2ccccc2)NC(=O)[C@H](CC(=O)O)NC(=O)[C@H](CCCCN)NC(=O)[C@H](CCC(=O)O)NC1=O)[C@@H](C)O` (stereo in doubt; form 2) [listing 2 of 2 here], the Stability entry was “Stable”.
The same measure, in the same setting: in the case of `CC[C@H](C)[C@H](NC(=O)[C@H](CCC(=O)O)NC(=O)[C@H](CO)NC(C)=O)C(=O)N[C@H](C(=O)N[C@@H](CCCCN)C(=O)N[C@@H](CCC(N)=O)C(=O)N[C@@H](CCC(=O)O)C(=O)N[C@@H](CCCCN)C(=O)N[C@]1(C)CCCCCC=CCCCC[C@@](C)(C(=O)N[C@@H](Cc2ccc(O)cc2)C(=O)N[C@@H](CS)C(N)=O)NC(=O)[C@H](CCCNC(=N)N)NC(=O)[C@H](Cc2cnc[nH]2)NC(=O)[C@H](CO)NC(=O)[C@H](Cc2c[nH]c3ccccc23)NC(=O)[C@H](CC(C)C)NC(=O)[C@H](Cc2ccccc2)NC1=O)[C@@H](C)O` (Ac-SEITKQEK[X1]FLWSHR[X2]YC-NH2; staple 9-16) it was “Stable”; in that of `CC[C@H](C)[C@H](NC(=O)[C@H](CCC(=O)O)NC(=O)[C@H](CO)NC(C)=O)C(=O)N[C@H](C(=O)N[C@@H](CCCCN)C(=O)N[C@@H](CCC(N)=O)C(=O)N[C@@H](CCC(=O)O)C(=O)N[C@@H](CCCCN)C(=O)N[C@@]1(C)CCC/C=C/CCC[C@@](C)(C(=O)N[C@@H](Cc2cnc[nH]2)C(=O)N[C@@H](CCCNC(=N)N)C(=O)N[C@@H](Cc2cnc[nH]2)C(=O)N[C@@H](Cc2ccc(O)cc2)C(=O)N[C@@H](CS)C(N)=O)NC(=O)[C@H](Cc2c[nH]c3ccccc23)NC(=O)[C@H](CC(C)C)NC(=O)[C@H](Cc2ccccc2)NC1=O)[C@@H](C)O` (Ac-SEITKQEK[S5]FLW[S5]HRHYC-NH2; staple (E) 9-13), “Stable”.
